Measured values as given in patent publication US20050090396A1, “Herbicides based on substituted carboxylic acid anilides” (priority 2001, published 2005).

What was measured:
[1] = system: Hordeum vulgare (winter barley); experiment: Post-emergence test/greenhouse, damage to winter barley (HORVW); type: in vivo
Procedure: (§1) Post-Emergence Test/Greenhouse
Test plants are grown under controlled conditions (temperature and light).
(§2) Following the spray application, the plant containers are kept in the greenhouse under constant light and temperature conditions.
(§3) After five days (5d) and/or three weeks (21d), the degree of damage to the plants is rated in % damage in comparison to the development of the untreated control.

[2] = system: Triticum aestivum (winter wheat); experiment: Post-emergence test/greenhouse, damage to winter wheat (TRZAW); type: in vivo
Procedure: as §1
Test plants are grown under controlled conditions (temperature and light). Once the plants have reached a height of 5 to 15 cm, the test compound or the combination of test compounds is applied by spraying such that the particular amounts of active compound desired are applied per unit area. The concentration of the spray liquor is chosen so that the particular amounts of active compound desired are applied in 500 litres of water/ha.
as §2, §3
• 0%=no effect (like untreated control) • 100%=total destruction.
Unless indicated otherwise, the tests were carried out in the presence of 0.5% Renex 36. • a.i. denotes “active ingredient” (active compound). • HORVW denotes Hordeum vulgare (winter barley).
TRZAW denotes Triticum aestivum (winter wheat).

[3] = 50 g of ai/ha, without addition of Renex 36

CCS(=O)(=O)N(C(=O)COc1ccc(Cl)cc1Cl)c1cc(-n2c(=O)cc(C(F)(F)F)n(C)c2=O)c(F)cc1C#N [Ex. I-1]
degree of damage to the plants, HORVW 21d ([1]; 30 g of ai/ha, 0.5% Renex 36): 20%
degree of damage to the plants, HORVW 21d ([1]; 60 g of ai/ha, 0.5% Renex 36): 40%

CCS(=O)(=O)N(C(=O)CCc1ccc(Cl)c(Cl)c1)c1cc(-n2c(=O)cc(C(F)(F)F)n(C)c2=O)c(F)cc1C#N [Ex. I-2]
degree of damage to the plants, HORVW 5d ([1]; 30 g of ai/ha, 0.5% Renex 36): 40%
degree of damage to the plants, HORVW 5d ([1]; 60 g of ai/ha, 0.5% Renex 36): 60%

CCS(=O)(=O)N(C(=O)CCc1ccc(Cl)c(Cl)c1)c1cc(-n2ncc(=O)n(C)c2=O)c(F)cc1C#N [Ex. I-14]
degree of damage to the plants, TRZAW 5d ([2]; 60 g of ai/ha, 0.5% Renex 36): 20%
degree of damage to the plants, HORVW 5d ([1]; 60 g of ai/ha, 0.5% Renex 36): 30%

CCS(=O)(=O)N(C(=O)CCc1cccc(OC)c1)c1cc(-n2c(=O)cc(C(F)(F)F)n(C)c2=O)c(F)cc1C#N [Ex. I-24]
degree of damage to the plants, HORVW 5d ([1]; 15 g of ai/ha, 0.5% Renex 36): 40%
degree of damage to the plants, HORVW 5d ([1]; 30 g of ai/ha, 0.5% Renex 36): 60%
degree of damage to the plants, HORVW 5d ([1]; 60 g of ai/ha, 0.5% Renex 36): 70%

Cn1c(C(F)(F)F)cc(=O)n(-c2cc(N(C(=O)CCc3ccc(F)c(F)c3)S(C)(=O)=O)c(C#N)cc2F)c1=O [Ex. I-26]
degree of damage to the plants, TRZAW 21d ([2]; 30 g of ai/ha, 0.5% Renex 36): 20%
degree of damage to the plants, TRZAW 21d ([2]; 60 g of ai/ha, 0.5% Renex 36): 30%
degree of damage to the plants, HORVW 21d ([1]; 15 g of ai/ha, 0.5% Renex 36): 10%
degree of damage to the plants, HORVW 21d ([1]; 30 g of ai/ha, 0.5% Renex 36): 20%
degree of damage to the plants, HORVW 21d ([1]; 60 g of ai/ha, 0.5% Renex 36): 40%

CCS(=O)(=O)N(C(=O)C(C)=Cc1ccccc1)c1cc(-n2c(=O)cc(C(F)(F)F)n(C)c2=O)c(F)cc1C#N [Ex. I-29]
degree of damage to the plants, HORVW 5d ([1]; 15 g of ai/ha, 0.5% Renex 36): 10%

CCS(=O)(=O)N(C(=O)C=Cc1ccccc1Cl)c1cc(-n2c(=O)cc(C(F)(F)F)n(C)c2=O)c(F)cc1C#N [Ex. I-31]
degree of damage to the plants, TRZAW 5d ([2]; 30 g of ai/ha, 0.5% Renex 36): 20%
degree of damage to the plants, TRZAW 5d ([2]; 60 g of ai/ha, 0.5% Renex 36): 20%
degree of damage to the plants, HORVW 5d ([1]; 15 g of ai/ha, 0.5% Renex 36): 30%
degree of damage to the plants, HORVW 5d ([1]; 30 g of ai/ha, 0.5% Renex 36): 40%
degree of damage to the plants, HORVW 5d ([1]; 60 g of ai/ha, 0.5% Renex 36): 50%

Cn1c(C(F)(F)F)cc(=O)n(-c2cc(N(C(=O)C=Cc3ccccc3Cl)S(C)(=O)=O)c(C#N)cc2F)c1=O [Ex. I-32]
degree of damage to the plants, HORVW 5d ([1]; 30 g of ai/ha, 0.5% Renex 36): 25%
degree of damage to the plants, HORVW 5d ([1]; 60 g of ai/ha, 0.5% Renex 36): 40%

CCS(=O)(=O)N(C(=O)CCc1cccc(Cl)c1)c1cc(-n2c(=O)cc(C(F)(F)F)n(C)c2=O)c(F)cc1C#N [Ex. I-33]
degree of damage to the plants, TRZAW 5d ([2]; 60 g of ai/ha, 0.5% Renex 36): 25%
degree of damage to the plants, TRZAW 21d ([2]; 30 g of ai/ha, 0.5% Renex 36): 10%
degree of damage to the plants, TRZAW 21d ([2]; 60 g of ai/ha, 0.5% Renex 36): 15%
degree of damage to the plants, HORVW 5d ([1]; 60 g of ai/ha, 0.5% Renex 36): 40%
degree of damage to the plants, HORVW 21d ([1]; 30 g of ai/ha, 0.5% Renex 36): 15%
degree of damage to the plants, HORVW 21d ([1]; 60 g of ai/ha, 0.5% Renex 36): 20%

CCS(=O)(=O)N(C(=O)CC(C)c1ccccc1)c1cc(-n2ncc(=O)n(C)c2=O)c(F)cc1C#N (stereo not shown) [Ex. I-40]
degree of damage to the plants, TRZAW 5d ([2]; 60 g of ai/ha, 0.5% Renex 36): 20%
degree of damage to the plants, HORVW 5d ([1]; 60 g of ai/ha, 0.5% Renex 36): 30%
degree of damage to the plants, HORVW 21d ([1]; 60 g of ai/ha, 0.5% Renex 36): 20%

CCS(=O)(=O)N(C(=O)CCc1cccc(OC)c1)c1cc(-n2ncc(=O)n(C)c2=O)c(F)cc1C#N [Ex. I-41]
degree of damage to the plants, HORVW 5d ([1]; 15 g of ai/ha, 0.5% Renex 36): 20%
degree of damage to the plants, HORVW 5d ([1]; 30 g of ai/ha, 0.5% Renex 36): 25%

CCS(=O)(=O)N(C(=O)CCc1ccc(F)c(F)c1)c1cc(-n2ncc(=O)n(C)c2=O)c(F)cc1C#N [Ex. I-42]
degree of damage to the plants, HORVW 5d ([1]; 15 g of ai/ha, 0.5% Renex 36): 15%
degree of damage to the plants, HORVW 5d ([1]; 30 g of ai/ha, 0.5% Renex 36): 20%
degree of damage to the plants, HORVW 5d ([1]; 60 g of ai/ha, 0.5% Renex 36): 30%
degree of damage to the plants, HORVW 21d ([1]; 60 g of ai/ha, 0.5% Renex 36): 20%

CCS(=O)(=O)N(C(=O)CCc1ccc(F)cc1F)c1cc(-n2ncc(=O)n(C)c2=O)c(F)cc1C#N [Ex. I-43]
degree of damage to the plants, TRZAW 5d ([2]; 15 g of ai/ha, 0.5% Renex 36): 15%
degree of damage to the plants, TRZAW 5d ([2]; 30 g of ai/ha, 0.5% Renex 36): 15%
degree of damage to the plants, HORVW 21d ([1]; 15 g of ai/ha, without addition of Renex 36): 10%

CCCCCC(C)OC(=O)COc1ccc(Cl)c2cccnc12 (stereo not shown) [cloquintocet-mexyl, 1-methylhexyl 5-chloroquinolin-8-oxyacetate, reference compound]
degree of damage to the plants, TRZAW 5d ([2]; 50 g of ai/ha, 0.5% Renex 36): 0%
degree of damage to the plants, TRZAW 5d [2, 3]: 0%
degree of damage to the plants, TRZAW 21d ([2]; 50 g of ai/ha, 0.5% Renex 36): 0%
degree of damage to the plants, HORVW 5d ([1]; 50 g of ai/ha, 0.5% Renex 36): 0%
degree of damage to the plants, HORVW 5d [1, 3]: 0%
degree of damage to the plants, HORVW 21d ([1]; 50 g of ai/ha, 0.5% Renex 36): 0%
degree of damage to the plants, HORVW 21d [1, 3]: 0%

CCOC(=O)C1=NOC(c2ccccc2)(c2ccccc2)C1 [isoxadifen, ethyl 4,5-dihydro-5,5-diphenyl-3-isoxazolecarboxylate, reference compound]
degree of damage to the plants, TRZAW 5d ([2]; 50 g of ai/ha, 0.5% Renex 36): 0%
degree of damage to the plants, TRZAW 5d [2, 3]: 0%
degree of damage to the plants, TRZAW 21d ([2]; 50 g of ai/ha, 0.5% Renex 36): 0%
degree of damage to the plants, HORVW 5d ([1]; 50 g of ai/ha, 0.5% Renex 36): 0%
degree of damage to the plants, HORVW 5d [1, 3]: 0%
degree of damage to the plants, HORVW 21d ([1]; 50 g of ai/ha, 0.5% Renex 36): 0%
degree of damage to the plants, HORVW 21d [1, 3]: 0%

CCOC(=O)C1=NN(c2ccc(Cl)cc2Cl)C(C)(C(=O)OCC)C1 (stereo not shown) [mefenpyr-diethyl, diethyl 1-(2,4-dichlorophenyl)-4,5-dihydro-5-methyl-1H-pyrazole-3,5-dicarboxylate, reference compound]
degree of damage to the plants, TRZAW 5d ([2]; 50 g of ai/ha, 0.5% Renex 36): 0%
degree of damage to the plants, TRZAW 21d ([2]; 50 g of ai/ha, 0.5% Renex 36): 0%
degree of damage to the plants, HORVW 5d ([1]; 50 g of ai/ha, 0.5% Renex 36): 0%
degree of damage to the plants, HORVW 21d ([1]; 50 g of ai/ha, 0.5% Renex 36): 0%
